Experimental data: patent US20170239212A1, “[…] AND USE THEREOF AS ANTIVIRAL AGENTS” (priority 2014, published 2017)

Tested on: K-562 human myelocytic leukemia cell line
Test: Proliferation of K-562 cells
Type: cell-based
Conditions: maximally effective concentration, 72 hours, vs DMSO control
Method: K562 cells were counted after 3 day treatment with different concentrations of PMA (0.1, 1, 10, 100, 1000 nM), bryostatin 1 (0.1, 1, 10, 100, 1000 nM), the bryologues MERLE 21, 22, or 23 (1, 10, 100, 1000, 5000 nM) or DMSO as control. The number of cells is presented as % of the DMSO-treated control. Data represent the means±SEM of three independent experiments.
K-562 cells, from the Biological Testing Branch, National Cancer Institute, NIH (Frederick, Md.), were grown under usual conditions in RPMI-1640, supplemented with 10% fetal bovine serum. 72 hours after treatment with different drugs or DMSO the cell number was determined using a Beckman particle counter (Beckman Coulter Inc., Fullerton, Calif.).

For `CCC/C=C/C=C/C(=O)O[C@H]1/C(=C/C(=O)OC)C[C@H]2C[C@H]([C@@H](C)O)OC(=O)C[C@H](O)C[C@@H]3C[C@H](OC(C)=O)C(C)(C)[C@](O)(C[C@@H]4C/C(=C/C(=O)OC)C[C@H](/C=C/C(C)(C)[C@]1(O)O2)O4)O3` [Bryostatin 1], the “Maximal inhibition of K-562 cell growth” value was 31.8±9.2%.
